8 molecules from PubChem BioAssay (NCI) can be followed below.

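Compound exposure: 48 hours, 5 concentrations, 96-well plates. GI50: concentration for 50% inhibition of growth. TGI denotes the concentration required for complete inhibition of growth.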

Common to all, as to assay: NCI anticancer screen, dose series, 48 h
For assay [1], the system named is SF-539 CNS.
Assay [2] has as its system MALME-3M melanoma.
Assay [3] has as its system TK-10 renal.
In assay [4] the test system is A498 renal.
The test system of assay [5] is NCI-H23 lung.
In assay [6] the test system is SK-MEL-5 melanoma.
Assay [7] concerns UACC-257 melanoma.
The test system of assay [8] is MOLT-4 leukemia.
For assay [9], the system named is UACC-62 melanoma.
Assay [10] concerns EKVX NSCLC.

`CCS(=O)(=O)N1CCN(c2ccc(Nc3ncc(C(N)=O)c(NC4CC4)n3)cc2)CC1`: the GI50 was 2.09 µM in assay [1]; 20 µM in assay [2]; 9.19 µM in [3]; 4.32 µM in assay [4]; 5.46 µM in [5]; 3.13 µM in [6]. Further, the GI50 was 21.2 µM in assay [7], 2.7 µM in [8], 15.7 µM in assay [9] and 63 µM in assay [10]. Further, the TGI was 10.7 µM in assay [1]; 85.2 µM in [2]; 32.2 µM in assay [3]; 8.97 µM in assay [4]; greater than 100 µM in assay [5]; 26.6 µM in assay [6]. Further, the TGI in assay [7] was greater than 100 µM; in assay [8], 16.5 µM; in [9] it was 44 µM; in [10], greater than 100 µM.
Turning to `OCC1OC(n2cnc3c(NCc4ccccc4O)ncnc32)C(O)C1O` (configuration not stated), the GI50 in [1] is 0.403 µM; in assay [2], 2.99 µM; in assay [3] it was 0.322 µM; in assay [4], 1.21 µM; in [5] it was 0.457 µM; in assay [6] it was 1.84 µM. For the same molecule, the GI50 in assay [7] is greater than 83.6 µM; in assay [8], 0.596 µM; in [9], 1.27 µM; in assay [10], 1.03 µM. For the same molecule, the TGI in assay [1] is 2.49 µM; in [2] it was greater than 75.5 µM; in assay [3], greater than 52.6 µM; in [4] it was 6.09 µM; in assay [5], 4.46 µM; in assay [6], 15.3 µM. The TGI in assay [7] is greater than 100 µM; in [8] it was greater than 38 µM; in assay [9], 24.2 µM; in assay [10], greater than 100 µM.
As for `O=C(COc1cccc(/C=C2\Oc3ccc4ccccc4c3C2=O)c1)c1ccc([N+](=O)[O-])cc1`, the GI50 in [1] was 14 µM; in assay [2] it was 14.7 µM; in assay [3], 37.3 µM; in assay [4] it was greater than 100 µM; in [5] it was 21 µM; in [6] it was 13 µM. Further, the GI50 in assay [7] was greater than 100 µM; in [8], 13.3 µM; in [9], 14.1 µM; in assay [10], greater than 100 µM. The TGI in assay [1] was 32.1 µM; in [2] it was 43 µM; in [3], greater than 100 µM; in assay [4] it was greater than 100 µM; in assay [5] it was 80.8 µM; in assay [6], 34.8 µM. Moreover, the TGI is greater than 100 µM in [7], 38.6 µM in [8], 30.4 µM in assay [9] and greater than 100 µM in assay [10].
Regarding `C/C=C(\C)C(=O)O[C@@H]1C=CC(=O)O[C@H]1CNC(=O)[C@H](C)O`, the GI50 in [1] is 23.3 µM; in assay [2], 15 µM; in [3] it was 18.9 µM; in assay [4], 21.2 µM; in assay [5] it was 25.6 µM; in assay [6] it was 19.6 µM. Moreover, the GI50 in [7] was 26.9 µM; in [9], 16.9 µM; in [10], 20.9 µM. The TGI in assay [1] is 57.5 µM; in assay [2] it was 32.8 µM; in [3] it was 43.2 µM; in [4], 53 µM; in assay [5], greater than 75.4 µM; in assay [6], 38.8 µM. Also, the TGI is greater than 84.4 µM in assay [7], 5.35 µM in assay [8], 37.7 µM in [9] and 49.5 µM in assay [10].
For the molecule `NS(=O)(=O)c1cc(C(=O)O)c(Cl)c([N+](=O)[O-])c1Cl`, the TGI in assay [1], in assay [2], in assay [3], in assay [4], in assay [5] and in assay [6] was greater than 100 µM throughout. The TGI in assay [7], in assay [8], in assay [9] and in assay [10] was greater than 100 µM in each case.
Regarding `CC(=O)/C=C/c1ccc(N(CCO)Cc2ccc(C(C)(C)C)cc2)cc1`, the GI50 in assay [1] was 84.3 µM; in assay [2], 65.3 µM; in assay [3] it was 112 µM; in [4] it was 113 µM; in [5] it was 63.7 µM; in assay [6] it was 39.9 µM. Moreover, the GI50 in assay [7] was 78.1 µM; in [8], 30.1 µM; in [9], 46.6 µM; in assay [10] it was 31 µM. For the same molecule, the TGI is 212 µM in [1]; 208 µM in [2]; 237 µM in [3]; 236 µM in assay [4]; 235 µM in [5]; 146 µM in assay [6]. Moreover, the TGI in assay [7] was determined as 217 µM; in assay [8], 142 µM; in assay [9] it was 176 µM; in assay [10], 162 µM.
In the case of `O=C(Nc1cc2cc([N+](=O)[O-])ccc2oc1=O)c1cccs1`, the TGI in [1] was 69.9 µM; in [2], greater than 100 µM; in assay [3], greater than 100 µM; in assay [4], greater than 100 µM; in [6], 45 µM; in assay [7], greater than 100 µM. Besides, the TGI in [8] and in assay [10] was greater than 100 µM each time.
For `NCCCNc1nc2ccccc2c2c(=O)c3cc(F)cc(Cl)c3sc12`, the GI50 in assay [1] was 1.83 µM; in [2], 1.68 µM; in [3], 1.91 µM; in assay [4] it was 2.11 µM; in [5] it was 1.56 µM; in assay [6], 6.5 µM. Moreover, the GI50 in assay [7] was 3.29 µM; in assay [8], 1.78 µM; in [9] it was 1.82 µM; in assay [10], 1.56 µM. Also, the TGI in assay [1] was found to be 3.27 µM; in assay [2] it was 3.32 µM; in assay [3], 3.39 µM; in assay [4] it was 7.04 µM; in [5], 3.07 µM; in assay [6], 20.3 µM. Besides, the TGI in assay [7] stood at 11.2 µM; in [8], 3.77 µM; in assay [9] it was 3.52 µM; in [10], 3.07 µM.
